Where a SMILES comes first, the peptide text is derived from it.
SMILES	logP
NC(Cc1ccccc1)C(=O)NCC(=O)NCC(=O)NC(Cc1ccccc1)C(=O)O (stereo not drawn) (H-FGGF-OH; configuration not given here)	-1.51
ClCC1(C(Cl)Cl)C2CC(Cl)(Cl)C1(C(Cl)Cl)CC2(Cl)Cl (stereo not drawn)	5.96
CCOC(=O)C(=Cc1ccccc1)S(=O)(=O)c1ccc([N+](=O)[O-])cc1	3.2
c1ccc(N2CCN(CCn3nc4ccccc4n3)CC2)cc1	3.34
CC1(C)Oc2ccc(C#N)cc2C(N2CCCC2=O)C1O (stereo not drawn)	2.32
CCOc1ccc(C(=O)OCCCn2ccc(=O)c(O)c2C)cc1	1.79
CCN(CC)NC(=O)NS(=O)(=O)c1ccc(C)cc1	0.47
CN1CC(O)N(C(=O)NC2CCCCC2)C1=O (stereo not drawn)	1.87
CC(C)CC(N)C(=O)NC(C)C(=O)NC(CC(C)C)C(=O)O (stereo not drawn) (H-Leu-Ala-Leu-OH; configuration not given here)	-2.03
CCCNc1ccncc1S(=O)(=O)NC(=NC#N)NC(C)C	0.35
NC(=S)NN=C(c1cccc([N+](=O)[O-])c1)c1ccccn1	1.9
CN(C/C=C/C#CC(C)(C)C)Cc1cccc2ccccc12	6
CCOc1cccc2nc(N)nc(N)c12	1.69
CCN(CC)CCSC(=NO)c1noc(-c2ccccc2)n1	3.05
CC(N)C(=O)NC(Cc1c[nH]c2ccccc12)C(=O)O (stereo not drawn)	-2.21
CCOc1ccc(-n2nnnc2N)cc1	1.32
CC(=O)N(O)CCCCCNC(=O)CCC(=O)N(O)CCCCCNC(=O)CCC(=O)N(O)CCCCCNS(C)(=O)=O	-0.36
CCCCOCCCCCNC(=O)NC12CC3CC(CC(C3)C1)C2	5
CCCCCNc1ncnc2nc[nH]c12	2.58
Cc1c(C)c2cc3c(C)coc3c(C)c2oc1=O	3.62
CCC(C)C(N)C(=O)NC(C)C(=O)NC(Cc1ccc(O)cc1)C(=O)NC(Cc1c[nH]c2ccccc12)C(=O)NCC(=O)O (stereo not drawn) (H-IAYWG-OH; configuration not given here)	-1.47
Cc1nc2c3c(c(C(=O)N(C)C)cn2c1C)CCC(c1ccccc1)O3 (stereo not drawn)	3.3
CCC(CC)C(=O)NS(=O)(=O)c1ccc(C(F)(F)F)cc1[N+](=O)[O-]	3.57
CC(C)CNc1ncnc2c1ncn2C1OC(CO)C(O)C1O (stereo not drawn)	1.01
CNc1ccncc1S(=O)(=O)NC(=NC#N)NC(C)C	-0.65

SMILES	logP
c1ccc(CN2CCN(CCCOn3nnc4ccccc43)CC2)cc1	4
Cc1cc(C)cc(Cc2c[nH]cn2)c1	2.52
Cc1cc(=O)oc2c(C)c3occc3cc12	2.82
Cc1ccc(C)c(Cc2cnc[nH]2)c1	2.72
C#CCN(N=O)C(=O)NCCCCC(NC(C)=O)C(=O)NCc1ccccc1 (stereo not drawn)	1.64
Cc1oc2ccc3c(C)cc(=O)[nH]c3c2c1C	3.18
O=C(O)CCCCON=C(c1cccc(C(F)(F)F)c1)c1ncccn1	2.77
CSCCC(NC(=O)C(Cc1ccccc1)NC(=O)CNC(=O)C(C)NC(=O)C(N)Cc1ccc(O)cc1)C(=O)O (stereo not drawn)	-0.59
C=C(Br)CON=C(C)c1cccc(Oc2nc(OC)cc(OC)n2)c1C(=O)OC	3.73
CC(NC(=O)C(N)Cc1c[nH]c2ccccc12)C(=O)O (stereo not drawn)	-1.98
CCCOc1cccc(NC(=O)OCCN2CCCCC2)c1	4.48
O=C(O)CCCON=C(c1ccccc1)c1ccncn1	1.95
CCCCC(O)C(CCCCOc1cccc2ccccc12)n1cncn1 (stereo not drawn)	4.31
CC(C)COC(=O)n1cc(F)c(=O)[nH]c1=O	0.87
CC(=O)OC1CCCC2(C)CCC(C(C)(C)O)CC12 (stereo not drawn)	3.42
CCCNc1[nH]cnc2ncnc1-2	1.44
CC(C)SCc1cc(=O)c(O)co1	1.17
CC(C)(C)[N+]([O-])=Cc1ccccc1[N+](=O)[O-]	0.8
CC1CC(N)CN1c1nc2c(cc1F)c(=O)c(C(=O)O)cn2-c1ccc(F)cc1F (stereo not drawn)	-0.2
CC(C)C(=O)OCC1OC(n2cc(I)c(=O)[nH]c2=O)CC1O (stereo not drawn)	0.84
OCCCCCCCNc1ncnc2c1ncn2C1OC(CO)C(O)C1O (stereo not drawn)	0.68
COc1cc2ncnc(Nc3cccc(Br)c3)c2cc1OC	3.49
Cc1ncc([N+](=O)[O-])n1CCN=[N+]=[N-]	0.76
CCN(CC)CCSC(=NO)c1nc(Cc2ccccc2)no1	2.55
CN(C)CCCC(c1ccccc1)c1ccccc1	4.91

SMILES	logP
COC(=O)C(=Cc1cnc(SC(C)=O)n1C)C(=O)OC	-0.43
C=C(Cl)CON=C(C)c1cccc(Oc2nc(OC)cc(OC)n2)c1C(=O)OC	3.63
CNc1ccc(-c2cn3cc(SC)ccc3n2)cc1	3.9
Cc1coc2c(C)c3oc(=O)cc(C)c3cc12	3.25
Cc1cccc2c1OCN(CCO[N+](=O)[O-])C2=O	2.48
c1ccc(CN2CCN(CCn3nc4ccccc4n3)CC2)cc1	3.3
OCCNc1ncnc2c1ncn2C1OC(CO)C(O)C1O (stereo not drawn)	-1.13
CCCNCc1ccc(C)cc1	2.96
O=c1c2c(nc3n1CCC3)CCC2	0.22
COC(=O)NC(=O)Cn1c(C)nc2ccccc2c1=O	0.4
O=[n+]1cnn([O-])c2ccccc21	-0.8
CCOC(=O)c1c(O)c2ccc(Cl)cc2[nH]c1=O	2.6
CC(C)CC(NC(=O)C(NC(=O)C(CO)NC(=O)C(CC(C)C)NC(=O)CN)C(C)C)C(=O)O (stereo not drawn) (H-GLSVL-OH; configuration not given here)	-1.64
O=C1N=C(N2CCCCC2)CN1c1ccc(Cl)cc1	2.3
COC(=O)C(C)NP(=O)(OCC1C=CC(n2cc(C)c(=O)[nH]c2=O)O1)Oc1cccc(C(C)=O)c1 (stereo not drawn)	0.92
CCOc1ccccc1NC(=O)OC1C(CN(CC)CC)C2CCC1(C)C2(C)C (stereo not drawn)	5.8
Cc1coc2cc3oc(=O)cc(C)c3cc12	2.76
O=[N+]([O-])c1cccc(CNc2ncnc3nc[nH]c23)c1	2.03
COc1cccc(CCl)c1	2.68
CC(C)NC(=S)NS(=O)(=O)c1cnccc1NC1CCCCCC1	3.86
CC(c1ccccc1)N1CC(N2CCOCC2)=NC1=O (stereo not drawn)	0.8
CCNc1ncnc2c1ncn2C1OC(CO)C(O)C1O (stereo not drawn)	0.01
CCCCCCCCCCNCCO	3.62
CC(C(=O)O)c1ccc(N2CC3CCCCC3C2=O)cc1 (stereo not drawn)	3.15
CC(C)CC(N)C(=O)NC(CC(C)C)C(=O)NC(C)C(=O)NC(Cc1ccccc1)C(=O)O (stereo not drawn) (H-LLAF-OH; configuration not given here)	-1

SMILES	logP
C=CC1(C)C=C2CCC3C(C)(CO)CCCC3(C)C2CC1 (stereo not drawn)	6.85
CC(C)(C)c1cc(O)cc(C(C)(C)C)c1	4.64
CCN(CCO)CCCOc1cc2ncnc(Nc3cc(CC(=O)Nc4cccc(F)c4)[nH]n3)c2cc1OC	3.7
Nc1nnnn1-c1cccc2ccccc12	1.72
COCCNC(=O)Cn1cnc([N+](=O)[O-])n1	-0.85
O=C1N=C(N2CCOCC2)CN1Cc1ccccc1	0.5
S=c1nccc[nH]1	-1.11
O=c1[nH]c2cc(Cl)ccc2c(O)c1-c1ccccc1	3.5
COc1ccc(Nc2nc(N)nc(O)n2)cc1OC	1.76
COc1ccc(F)cc1CNC1CCCNC1c1ccccc1 (stereo not drawn)	3.5
CCOC(=O)c1cccc2c1CC(c1ccc(OC)cc1)C(OC(C)=O)C(=O)N2CCN(C)C (stereo not drawn)	4.2
NC1=NCC(CN2CCC(C(=O)c3ccccc3)CC2)O1 (stereo not drawn)	1.05
CC(C)(CO)N=O	-0.52
CNC(=O)Cn1cccc(O)c1=O	-1.15
COc1cc(OC)c2c(c1)OC(c1ccc(OC)c(OC)c1)C(O)C2 (stereo not drawn)	3.1
COc1ccc(C2Cc3ccccc3N(CCN(C)C)C(=O)C2OC(C)=O)cc1 (stereo not drawn)	3.2
CC(C)(C)[N+]([O-])=Cc1cccc(O)c1	1
COC(=O)C(C)NP(=O)(OCC1C=CC(n2cc(C)c(=O)[nH]c2=O)O1)Oc1ccc(OC(F)(F)F)cc1 (stereo not drawn)	1.86
O=C(O)CCCCON=C(c1ccccc1)c1ccncn1	2.27
O=C1N=C(N2CCOCC2)CN1c1ccc(Cl)c(Cl)c1	1.9
O=C(OC1Cc2c(O)cc(O)cc2OC1c1ccc(O)c(O)c1)c1ccccc1 (stereo not drawn)	3.44
O=C1c2cc([N+](=O)[O-])ccc2OCN1CCO[N+](=O)[O-]	1.66
O=C(Nc1ccccc1)c1ccccc1I	2.85
O=C(C=Cc1ccc([N+](=O)[O-])o1)NN=Cc1ccc([N+](=O)[O-])o1	2.79
Nc1nc(N)c2c(Cl)cccc2n1	1.72

SMILES	logP
C=CCC1C(=O)N(CCN(C)C)c2ccccc2CC1c1ccc(OC)cc1 (stereo not drawn)	5.3
CCN(CC)C(=O)COC(=O)c1cc(S(N)(=O)=O)c(Cl)cc1NCc1ccco1	2.45
CCNN=Nc1ccc(C(N)=O)cc1	1.19
O=C1CCC(=O)N1c1ccc(Cl)c(Cl)c1	1.35
CCCC(=NOCC)C1=C(O)CC(C)(C2CC2)OC1=O (stereo not drawn)	3.28
Oc1cc(O)c2c(c1)OC(c1ccc(O)c(O)c1)C(OCCCc1ccccc1)C2 (stereo not drawn)	3.78
CC(=O)C(=Cc1cc(O)c(O)c([N+](=O)[O-])c1)C(C)=O	1.21
Cc1cccc(C)c1/C=C/c1c[nH]cn1	3.35
NC(Cc1cc(I)c(OCCc2ccc(O)cc2)c(I)c1)C(=O)O (stereo not drawn)	2
O=C1c2ccccc2-c2nnc(-c3ccccc3O)cc21	3.15
O=C(O)C(Cc1ccccc1)NC(=O)C1CCCN1 (stereo not drawn) (H-Pro-Phe-OH; configuration not given here)	-2.07
Cc1sc2c(C)cc3c(C)cc(=O)oc3c2c1C	4.09
COc1ccc(CCNCC(O)COc2ccc(-c3nc(C)c(C)[nH]3)cc2)cc1OC (stereo not drawn)	3.22
CC(C)C(N)C(=O)NC(Cc1ccc(O)cc1)C(=O)O (stereo not drawn) (H-Val-Tyr-OH; configuration not given here)	-2.52
COc1nc(N)nc(NC(C)(C)C)n1	1.93
Clc1cccc(Oc2c(Cl)cc(Cl)cc2Cl)c1	6.05
O=C1C=C(N2CCOCC2)CN1c1ccc(F)c(Cl)c1	2.2
CSCCC(N)C(=O)NC(Cc1c[nH]c2ccccc12)C(=O)O (stereo not drawn)	-1.5
O=C1N=C(N2CCOCC2)CN1c1ccc(Cl)cc1	1.5
Cc1nc2c3c(c(C(=O)N4CCC4)cn2c1C)CCC(c1ccccc1)O3 (stereo not drawn)	3.4
OCCN1CCN(CCn2nnc3ccccc32)CC1	-0.05
Cc1csc(Cl)c1NC1=NCCN1	1.18
CC(C)C(N)C(=O)NCC(=O)NC(Cc1ccccc1)C(=O)NC(C(=O)NC(Cc1ccccc1)C(=O)O)C(C)C (stereo not drawn) (H-VGFVF-OH; configuration not given here)	-0.5
